Reference: patent US6350251B1, “Biocidal locks” (Biolink Corporation, priority 2000, dated 2002)

How the values were obtained:
E. coli [1] = settings: urine isolate of E. coli to human uroepithelial cells; concentration dependent; cited from earlier work
Candida albicans [2] = settings: oral isolate of Candida albicans to human buccal epithelial cells; concentration dependent; cited from earlier work
S. epidermis = settings: cited from earlier work
[3] = clinical, bacteriologic outcomes, endotoxemia, organ failure, 28-day mortality rate as end points; cited from earlier work
Candida albicans [4] = assay: Inoculated DIALOCK port/catheter filled with lock solution, flush cultured on blood agar (Example 7); format: cell-based; design: key to organisms remaining, DIALOCK port flush: TNTC: Too numerous to count; settings: inoculum 5 cfu/0.1 mL; 2% citrated taurolidine or 5000 U/mL heparin (with preservative); 37° C. for 72 hours
Method: (§1) Clinical blood isolates of coagulase negative staphylococcus, Candida albicans, Staphylococcus aureus, Enterococcus, and Pseudomonas aeruginosa were inoculated into trypticase soy broth and allowed to incubate at 37° C. until the cultures were visibly turbid. Serial dilutions were made to obtain a final cell density of 10 colony forming units (cfu)/0.1 mL for S. aureus, Enterococcus, and Pseudomonas aeruginosa; 5 cfu/0.1 mL for Candida; 100 cfu/0.1 mL for coagulase negative staph. and Enterobacter. From the final dilution, 0.1 mL was instilled into each distal end of a DIALOCK port tube, and the DIALOCK port was incubated at room temperature overnight. After incubation, a regular silicon catheter was placed on the distal end of both sides of each DIALOCK port. A solution of 5000 U/mL of heparin (with preservative) or 2% citrated taurolidine was instilled through the proximal end of the DIALOCK port to fill the DIALOCK port and catheter. The catheter was clamped and the DIALOCK port/catheter was incubated at 37° C. for 72 hours. Following this incubation, both catheters were removed from each DIALOCK port and each was flushed with 0.1 mL of nutrient broth.

[5] = tested on: coagulase negative staphylococcus; assay: as above; format: cell-based; design: key to organisms remaining, DIALOCK port flush: TNTC: Too numerous to count; settings: inoculum 100 cfu/0.1 mL; 2% citrated taurolidine or 5000 U/mL heparin (with preservative); 37° C. for 72 hours
Method: as §1

Enterobacter = assay: as above; format: cell-based; design: key: TNTC: Too numerous to count; settings: inoculum 100 cfu/0.1 mL; 2% citrated taurolidine or 5000 U/mL heparin (with preservative); 37° C. for 72 hours
Method: as §1

Enterococcus = assay: as above; format: cell-based; design: key: TNTC: Too numerous to count; settings: inoculum 10 cfu/0.1 mL; 2% citrated taurolidine or 5000 U/mL heparin (with preservative); 37° C. for 72 hours
Method: as §1

Staphylococcus aureus = assay: as above; format: cell-based; design: key: TNTC: Too numerous to count; settings: inoculum 10 cfu/0.1 mL; 2% citrated taurolidine or 5000 U/mL heparin (with preservative); 37° C. for 72 hours
Method: as §1

Pseudomonas aeruginosa = assay: as above; format: cell-based; design: key: TNTC: Too numerous to count; settings: inoculum 10 cfu/0.1 mL; 2% citrated taurolidine or 5000 U/mL heparin (with preservative); 37° C. for 72 hours
Method: as §1

B. fragilis = settings: mice, intravenous 0.2 mL of a 20% solution in sterile 5% polyvinyl pyrrolidone; intraperitoneal B. fragilis; cited from earlier work
[6] = tested on: Vancomycin-Internediate Susceptibility Staphylococcus A ureus (VISA) and Methicillin-Resistant Staphylococcus Aureus (MRSA); settings: range of from pH 7.0 to pH 5.0; cited from earlier work
blood = assay: Clotting of pig blood in containers holding taurolidine solution with or without ACD-A (Example 1); settings: pig blood filled up to 30 mL over 5, 10 or 15 mL 0.5% taurolidine in Ringer-lactate, or 5 mL taurolidine solution plus 2 mL ACD-A; inspected after 30 minutes
Method: A 0.5% solution of taurolidine in Ringer-lactate solution (Thomae, Biberach, Germany) was introduced into each of four polyethylene bottles having a 30 mL volume. Filling volumes were 5, 10, and 15 mL. One bottle was filled with 5 mL of the taurolidine solution and 2 mL ACD-A (Fresenius, Bad Homburg, Germany) solution. ACD-A solution is used for the conservation of whole blood and contains per liter: 22.0 grams of sodium citrate dihydrate, 7.3 grams of citric acid and 34.5 grams of glucose monohydrate.
Blood was collected at a slaughter house from a female pig directly from the slaughter wound into the containers that were then filled up to the 30 mL level. The containers were capped and gently moved to mix blood with the solution. The containers were inspected after 30 minutes. Blood in the containers containing only taurolidine was clotted, but the blood in the container containing the mixture of taurolidine and ACD-A was not clotted.

E. coli [7] = settings: mice, intravenous 0.2 mL of a 20% solution in sterile 5% polyvinyl pyrrolidone; intraperitoneal E. coli; cited from earlier work

Row | Molecule | microbial anti-adherence activity (E. coli [1]) | microbial anti-adherence activity (Candida albicans [2]) | organisms remaining, Catheter flush (Candida albicans [4]) | organisms remaining, DIALOCK port flush (Candida albicans [4]) | organisms remaining, Catheter flush [5] | organisms remaining, DIALOCK port flush [5] | organisms remaining, Catheter flush (Enterobacter) | organisms remaining, DIALOCK port flush (Enterobacter) | organisms remaining, Catheter flush (Enterococcus) | organisms remaining, DIALOCK port flush (Enterococcus) | organisms remaining, Catheter flush (Staphylococcus aureus) | organisms remaining, DIALOCK port flush (Staphylococcus aureus) | organisms remaining, Catheter flush (Pseudomonas aeruginosa) | organisms remaining, DIALOCK port flush (Pseudomonas aeruginosa) | further results
1 | povidone-iodine | significant anti-adherence activity | significant anti-adherence activity | – | – | – | – | – | – | – | – | – | – | – | – | –
2 | [H]/N=C(\N/C(=N/[H])NCCCCCCNC(=N)NC(=N)Nc1ccc(Cl)cc1)Nc1ccc(Cl)cc1 [chlorhexidine] | significant anti-adherence activity | significant anti-adherence activity | – | – | – | – | – | – | – | – | – | – | – | – | –
3 | O=C([O-])CN(CCN(CC(=O)[O-])CC(=O)O)CC(=O)O.[Na+].[Na+] [disodium EDTA] | – | – | – | – | – | – | – | – | – | – | – | – | – | – | concentration shown to be bactericidal (S. epidermis; initial inoculum of 10^3 CFU of staphylococci per mL, in 24 hours): 20 mg/mL
4 | CN[C@H](CC(C)C)C(=O)N[C@H]1C(=O)N[C@@H](CC(N)=O)C(=O)N[C@H]2C(=O)N[C@H]3C(=O)N[C@H](C(=O)N[C@H](C(=O)O)c4cc(O)cc(O)c4-c4cc3ccc4O)[C@H](O)c3ccc(c(Cl)c3)Oc3cc2cc(c3O[C@@H]2O[C@H](CO)[C@@H](O)[C@H](O)[C@H]2O[C@H]2C[C@](C)(N)[C@H](O)[C@H](C)O2)Oc2ccc(cc2Cl)[C@H]1O [Vancomycin] | – | – | – | – | – | – | – | – | – | – | – | – | – | – | dose found to be bactericidal (S. epidermis; initial inocula of 10^3 CFU/mL): 6.7 µg/mL
5 | O=S1(=O)CCN(CN2CCS(=O)(=O)NC2)CN1 [taurolidine, bis-(1,1-dioxo-perhydroxy-1,2,4-thiadiazin-4-yl)methane] | significant anti-adherence activity | significant anti-adherence activity | No growth* | No growth | No growth | No growth | No growth | No growth | No growth | No growth | No growth | No growth | No growth** | No growth | therapeutic effect on the outcome of patients with sepsis syndrome [3]: no beneficial therapeutic effect; mortality rate (B. fragilis): very significantly reduce the mortality rate; taurolidine activity versus pH [6]: increases with decreasing pH; state of blood in the containers (blood): clotted; mortality rate (E. coli [7]): very significantly reduce the mortality rate
6 | Heparin | – | – | 20 cfu | TNTC | No growth | TNTC | TNTC | TNTC | TNTC | TNTC | TNTC | TNTC | TNTC | TNTC | inhibition of growth of S. epidermis (S. epidermis; isolate from the catheter of an infected patient): does not inhibit the growth
